Data reported in PMC10479830, “Nucleoside analogs NM107 and AT-527 are antiviral against rubella virus” (PNAS Nexus, 2023).
pIC50: −log10 of the molar value. Read-outs that look alike come from different tables or passages of the source.

What was measured:
rubella virus [1] = test system: rubella virus; set-up: method as in PMID 30680653, PMID 28974385; conditions: case study; cited from earlier work
rubella virus [2] = test system: rubella virus; set-up: method as in PMID 30680653, PMID 28974385; conditions: cited from earlier work
rubella virus [3] = assay: qRT-PCR of viral RNA in infected Jeg-3 cells; assay type: cell-based; conditions: 10 μM, 48 h, vs vehicle
Procedure: (§1) We next performed orthogonal assays to determine the magnitude of the inhibition of rubella infection upon treatment with either NM107 or AT-527. […] We also determined if these nucleoside analogs impacted virus production.
(§2) A549 cells were plated in 6-well plates at 5 × 10^5 cells/well, HBMEC were plated at 6 × 10^5 cells/well, or Jeg-3 cells were plated at 5 × 10^5 cells/well. Twenty-four hours later, vehicle or drugs were added at the indicated concentrations. One hour later, cells were infected with rubella virus (MOI = 0.17 for A549s, MOI = 0.07 for HBMEC, MOI = 0.05 for Jeg-3 cells) and HBMEC were spin-infected by centrifuging at 1,250×g for 1 h at 25°C. […] At 48 hpi, total RNA was purified using Trizol (Invitrogen) followed by the RNA Clean and Concentrate kit (Zymo Research). cDNA synthesis was performed with random hexamers and Moloney murine leukemia virus reverse transcriptase (Invitrogen). Gene-specific primers to rubella RA27/3 NSP and GAPDH were used (Table S4). […] Relative quantities of viral and cellular RNA were calculated using a relative standard curve method where quantification was performed with respect to a 5-point standard curve generated from serial dilutions of a pooled reference generated by combining each sample cDNA for the experiment. […]

rubella virus [4] = assay: viral titers of Jeg-3 supernatants, TCID50 assay; assay type: cell-based; conditions: Jeg-3 cells, 10 μM, 48 hpi, below the limit of detection
Procedure: (§3) A549 or Jeg-3 cells were plated, treated, and infected as for the qRT–PCR experiments. At 4 hpi, cells were washed twice with DPBS (Invitrogen) to remove any nonadsorbed virus and 2 mL of appropriate culture medium treated with vehicle or drug was added. At 48 hpi, cell supernatants were collected and titered by TCID50 assay.
(§4) A549 cells were plated in 96 well plates at 25,000 cells/well and incubated overnight before inoculating with two-fold serial dilutions of viral stock or virus-containing supernatant to determine viral titer. At 24 hpi, plates were processed for microscopy and imaged as above. Titers were calculated using the Reed–Muench method ([26]).

HCV [5] = test system: HCV; set-up: method as in PMID 31914458; conditions: cited from earlier work
rubella virus [6] = assay: qRT-PCR of viral RNA in infected A549 cells; assay type: cell-based; conditions: 10 µM, 48 h, vs vehicle
Procedure: as §1, §2

rubella virus [7] = assay: rubella virus infection of Jeg-3 cells, dose-response; assay type: cell-based; conditions: Rubella virus
Procedure: Since rubella can cause congenital infections, we next developed assays in the human trophoblast cell line Jeg-3.
(§5) A549 cells were plated in 384 well plates at 3,000 cells/well, HBMEC were plated at 7,000 cells/well, or Jeg-3 cells were plated at 3,000 cells/well in 20 μL growth media. The next day, 50 nL of drugs were added to assay wells, yielding a final concentration of 1 µM. The positive control nanchangmycin (n = 32) and the negative control DMSO (n = 32) were spotted on each assay plate. One hour later, cells were infected with rubella virus at a multiplicity of infection (MOI) = 0.234 for A549s, MOI = 0.1 for HBMEC, MOI = 0.05 for Jeg-3 cells). […] HBMECs were spin-infected by centrifuging at 1,250×g for 1 h at 25°C. Cells were fixed at 48 h post infection (hpi) in 4% formaldehyde/phosphate-buffered saline (PBS) for 15 min at room temperature and then washed twice with PBS. Cells were blocked with blocking buffer [2% bovine serum albumin in PBS with 0.1% Triton X-100 (PBST)]) for 1 h and incubated with primary antibody (mouse antirubella E1, CDC, 1 μg/mL) overnight at 4°C. Cells were washed three times with PBST and incubated in secondary (1:1000 antimouse Alexa Fluor 488 and 5 μg/mL Hoechst 33342) for 1 h at room temperature. Cells were washed three times with PBST and imaged using ImageXpress Micro (Molecular Devices). Cells were imaged with a 10× objective capturing four sites per well. The total number of cells and the percentage of infected cells were measured using the MetaXpress 5.3.3 cell scoring module. The aggregated percent infection of the DMSO and 2 µM nanchangmycin control wells on each assay plate were used to calculate Z′-factors. Sample well infection was normalized to aggregated DMSO plate control wells and expressed as percentage of control (POC = [%Infection sample/Average %Infection DMSO] × 100) and Z-score (Z = [%Infection sample − Average %Infection DMSO]/Standard Deviation %Infection DMSO) in Spotfire (PerkinElmer). Candidate hits were selected as compounds with POC <40% and viability >60%, compared with vehicle control.
(§6) Drugs were purchased as powders from Selleckchem, MedchemExpress, and MedKoo and suspended in DMSO. Drugs were arrayed in 8-pt dose–response in 384 well plates. Infections were performed using the screening conditions. DMSO (n = 32) and 2 µM nanchangmycin (n = 16) were included on each validation plate as controls for normalization. Infection at each drug concentration was normalized to aggregated DMSO plate control wells and expressed as POC (POC = %Infection sample/Average %Infection DMSO cont). A nonlinear regression curve fit analysis (GraphPad Prism 8) was performed on POC infection and cell viability using log10 transformed concentration values to calculate IC50 values for infection and CC50 values for cell viability. SI was calculated as a ratio of the drug's CC50 and IC50 values (SI = CC50/IC50).

rubella RA27/3 virus = assay: microbe, parasite or virus in culture; assay type: cell-based; conditions: for selectivity index (SI = CC50/IC50): A549 cells; for pIC50: Rubella virus
From the text: (§7) We developed a high-throughput, high-content, cell-based assay to monitor rubella virus infection of the human respiratory cell line A549, as the respiratory tract is infected in humans. […] We infected A549 cells with the rubella virus vaccine strain (RA27/3) and monitored infection using an antibody to the viral glycoprotein E1 (Fig. 1A) ([13]). […] To evaluate the utility of nanchangmycin as a positive control for our assay development, we performed a dose–response assay for nanchangmycin using automated fluorescent microscopy to quantify the cell number as a surrogate for cell viability and percent infection (Fig. 1A).
as §5, with “plate.” for “plate. One hour later, cells were infected with rubella virus at a multiplicity of infection (MOI) = 0.234 for A549s, MOI = 0.1 for HBMEC, MOI = 0.05 for Jeg-3 cells).”, “Cells were washed three times with PBST and incubated in secondary (1:1000 antimouse Alexa Fluor 488 and 5 μg/mL Hoechst 33342) for 1 h at room temperature.” left out
as §6

rubella virus [8] = assay: viral titers of A549 supernatants, TCID50 assay; assay type: cell-based; conditions: A549 cells, 10 µM, 48 hpi, at the limit of detection
Procedure: as §3, §4

[9] = cell number (cell viability) in HBMEC; assay type: cell-based; conditions: human, HBMEC (infected with rubella virus)
Procedure: A549 cells were plated in 384 well plates at 3,000 cells/well, HBMEC were plated at 7,000 cells/well, or Jeg-3 cells were plated at 3,000 cells/well in 20 μL growth media. The next day, 50 nL of drugs were added to assay wells, yielding a final concentration of 1 µM. The positive control nanchangmycin (n = 32) and the negative control DMSO (n = 32) were spotted on each assay plate. One hour later, cells were infected with rubella virus at a multiplicity of infection (MOI) = 0.234 for A549s, MOI = 0.1 for HBMEC, MOI = 0.05 for Jeg-3 cells). […] HBMECs were spin-infected by centrifuging at 1,250×g for 1 h at 25°C. […] The total number of cells and the percentage of infected cells were measured using the MetaXpress 5.3.3 cell scoring module. […] Sample well infection was normalized to aggregated DMSO plate control wells and expressed as percentage of control (POC = [%Infection sample/Average %Infection DMSO] × 100) and Z-score (Z = [%Infection sample − Average %Infection DMSO]/Standard Deviation %Infection DMSO) in Spotfire (PerkinElmer). […]
(§8) Drugs were purchased as powders from Selleckchem, MedchemExpress, and MedKoo and suspended in DMSO. […] Infection at each drug concentration was normalized to aggregated DMSO plate control wells and expressed as POC (POC = %Infection sample/Average %Infection DMSO cont). […] SI was calculated as a ratio of the drug's CC50 and IC50 values (SI = CC50/IC50).

[10] = cell number (cell viability) in A549 cells, Hoechst 33342, automated microscopy; assay type: cell-based, human; conditions: human, A549 cells (infected with rubella virus RA27/3); A549 cells, cell number; read-out: half-maximal cytotoxicity concentration (CC50)
From the text: as §7, §5, §6

rubella virus [11] = assay: rubella virus infection of HBMEC, dose-response; assay type: cell-based; conditions: Rubella virus
Procedure: Rubella virus can infect diverse tissues in vivo, and viruses can show tissue-specific dependencies on host factors. […] First, we developed assays in human brain microvascular endothelial cells (HBMECs) as a model for endothelial cells. We again used nanchangmycin to optimize the assay (Fig. 3A and B).
as §5, §6

[12] = set-up: method as in PMID 16248033; conditions: cited from earlier work
[13] = cell number (cell viability) in Jeg-3 cells; assay type: cell-based, human; conditions: human, Jeg-3 cells (infected with rubella virus)
Procedure: as §5, with “The aggregated percent infection of the DMSO and 2 µM nanchangmycin control wells on each assay plate were used to calculate Z′-factors.” left out, “Candidate hits were selected as compounds with POC <40% and viability >60%, compared with vehicle control.” left out
as §8

HCV [14] = test system: HCV; set-up: method as in PMID 16248033; conditions: reason for discontinuation; cited from earlier work

CC(=O)Oc1ccccc1C(=O)Nc1ncc([N+](=O)[O-])s1 [nitazoxanide]
rubella virus antigen in patient (skin lesions) (rubella virus [1]): reduced rubella antigen
antiviral activity in cultured cells infected with rubella virus (rubella virus [2]): showed antiviral activity

CNc1nc(N)nc2c1ncn2[C@@H]1O[C@H](CO[P@@](=O)(N[C@@H](C)C(=O)OC(C)C)Oc2ccccc2)[C@@H](O)[C@@]1(C)F [AT-527]
reduction in viral RNA by qRT-PCR (rubella virus [3]): > 100 fold
reduction of viral titers (rubella virus [4]): ~10,000 fold
in vivo activity in a clinical trial (HCV [5]; HCV infection): showed in vivo activity
tolerability in clinical trial (HCV [5]): well tolerated
reduction in viral replication as measured by qRT-PCR (rubella virus [6]): > 100 fold
pIC50 (rubella virus [7]; JEG-3, read-out: IC50, rubella virus infection): 8.00
selectivity index (SI = CC50/IC50) (rubella RA27/3 virus): > 9
pIC50 (rubella RA27/3 virus; A549, read-out: half-maximal inhibitory concentration (IC50), rubella virus infection): 5.65
reduction of viral titers (rubella virus [8]): ~100,000 fold

C[C@@]1(O)[C@H](O)[C@@H](CO)O[C@H]1n1ccc(N)nc1=O [NM107, 2′-C-methylcytidine]
CC50 at 48 h [9]: > 20000 nM
CC50 at 48 h [10]: > 20000 nM
pIC50 (rubella virus [11]): > 8.00
reduction in viral RNA by qRT-PCR (rubella virus [3]): > 100 fold
reduction of viral titers (rubella virus [4]): ~10,000 fold
bioavailability [12]: low bioavailability
reduction in viral replication as measured by qRT-PCR (rubella virus [6]): > 100 fold
pIC50 (rubella virus [7]; Jeg-3 cells, read-out: IC50, rubella virus infection): 6.22
selectivity index (SI = CC50/IC50) (rubella RA27/3 virus): > 817
pIC50 (rubella RA27/3 virus; A549, read-out: IC50, rubella virus infection): 7.70
CC50 at 48 h [13]: > 20000 nM
reduction of viral titers (rubella virus [8]): ~100,000 fold

CC(C)[C@H](N)C(=O)O[C@@H]1[C@@H](CO)O[C@@H](n2ccc(N)nc2=O)[C@]1(C)O [NM283]
toxicity in clinical trials (HCV [14]): gastrointestinal toxicity
